Entries after “also recorded” stand apart in the source; their conditions may differ. No end group written: not given here.
Assays:
Sprague Dawley rats = assay: Crypt-villus length and muscularis thickness in the small intestine of SD rats; format: in vivo
Protocol: FIG. 12 is a set of graphs showing the effect of compound 1846 (SEQ ID NO:34) on epithelial crypt-villus height (FIG. 12A) and muscular thickness (FIG. 12B) in the jejunum (i.e., mid section of the small intestine). Sprague Dawley rats were treated intravenously with compound 1846 (SEQ ID NO:34) (0.62, 3.41 or 6.2 mg/kg once daily) for 5 days (n=6/dose group). Then the animals were sacrificed and small intestinal biopsies (1 cm) were collected 25 cm distal from the pyloric sphincter. The biopsies were fixed, embedded in paraffin, sectioned and stained with haematoxylin and eosin. Stained sections were examined under a microscope and crypt depth, villus height, crypt-villus length and muscularis thickness measured. […] Values are means±SEM. * P<0.05, relative to vehicle controls (0 mg/kg/d).
The effect of the clinical candidate, 1846 (SEQ ID NO:34), on crypt-villus length and muscularis thickness in the small intestine of SD rats was investigated. 1846 (SEQ ID NO:34) (0.62, 3.41 or 6.2 mg/kg/day, n=6 rats/dose group) was administered as an i.v. bolus, once daily for five consecutive days. Twenty-four hours after the last dose had been administered the rats were sacrificed and a 1 cm biopsy was excised from the jejunum (30 cm distal from the gastric duodenal junction) and from the ileum (30 cm proximal from the ileocaecal junction) for histological processing.

[1] = system: male Sprague Dawley rats treated with indomethacin; assay: Indomethacin-induced small intestinal ulcers (model of Crohn's disease), extent of ulceration; format: in vivo; details: for Effect on ulceration compared with prednisolone: highest dose 200 nmol/kg vs prednisolone 10 mg/kg; for Estimated extent of ulceration: indomethacin alone 333±21 mm^2
Protocol: FIG. 13 is a graph illustrating the effect of compound 1848 (SEQ ID NO:36) on small intestinal ulcers induced by indomethacin. Male Sprague Dawley rats were treated with vehicle (saline; group 1) or indomethacin (7 mg/kg s.c., once daily for two days; groups 2-7). Indomethacin was given alone (group 2) or in combination with prednisolone (10 mg/kg s.c.; group 3) or with 8, 40, or 200 nmol/kg compound 1848 (SEQ ID NO:36) s.c. […] (groups 4-6). Finally, one group of rats was treated with combination treatment of prednisolone (10 mg/kg s.c.) and compound 1848 (SEQ ID NO:36), 200 nmol/kg s.c. once daily (group 7). Treatment with compound 1848 (SEQ ID NO:36) was initiated 4 days prior to indomethacin and continued during the two days of indomethacin treatment. On day 3, rats were sacrificed and upon necropsy, the small intestine was gently flushed with 10% formalin and filled with formalin for a period of 5 minutes, after which the intestine was cut open along the antimesenteric margin and suspended on a polypropylene plate. Any remaining intestinal contents were carefully removed with a pair of tweezers. After fixation for another 24 hours at room temperature, the tissue was rinsed in Milli-Q water and surface-stained for 20 minutes with Alcian Green 3BX (Chroma) prepared as a 0.5% solution in 1% acetic acid (Bie & Berntsen). After removal of excess staining solution with Milli-Q water the tissue preparation was transferred to 70% alcohol and analyzed using a stereomicroscope at low magnification (×7). Starting at the pylorus, the small intestine was scanned and the shape (circular vs. linear) and size (circular ulcers: diameter, linear ulcers: length×width) of all ulcers was measured using a standard ruler (resolution: 0.5 mm). An ulcer was defined as an area, which lacked epithelial surface. In healing ulcers only the area that still lacked epithelial surface was regarded an ulcer even if the villus structure was still missing in a larger area. All analysis was performed in a blinded manner. […] Treatment with prednisolone caused a significant reduction in the extent of ulceration by app. 29%. […] Values are means±SEM. * P<0.05 vs. indomethacin (group 2). ^#P<0.05 vs. prednisolone (group 3).
Crohn's disease is a chronic disease that causes episodic inflammation of the small intestine. The effect of the GLP-2 analogue 1848 (SEQ ID NO:36) on small intestinal inflammation in an indomethacin-induced model of Crohn's disease was investigated. We have previously shown that administration of indomethacin (s.c, once daily for 2 days) induces small intestinal inflammation characterized by ulcerations and, increases in the pro-inflammatory cytokine, tumour necrosis factor alpha (TNF-α).
To determine the effect of ZP1848 (SEQ ID NO:36) on ulceration 1848 (SEQ ID NO:36) (8, 40 and 200 nmol/kg, s.c, twice daily (9:00 and 16:00)) was given for 4 days prior to the first dose of indomethacin and for an additional two days together with indomethacin. The corticosteroid, prednisolone (10 mg/kg, p.o) was used as a positive control since corticosteroids are commonly used in the treatment of active inflammation in Crohn's disease. In addition a group of animals were given both 1848 (SEQ ID NO:36) (200 nmol/kg) and prednisolone to determine the effects of a combination treatment. Twenty four hours after the last dose of 1848 (SEQ ID NO:36) had been given the animals were sacrificed the small intestine was gently flushed clean and fixed. To determine the extent of ulceration the intestine was cut open along the antimesenteric margin, suspended on a polypropylene plate and surface-stained with Alcian Green 3BX. Starting at the pylorus, the small intestine was scanned and the shape (circular vs. linear) and size (circular ulcers: diameter, linear ulcers: length×width) of all ulcers was measured using a standard ruler (resolution: 0.5 mm). An ulcer was defined as an area, which lacked epithelial surface. […]

Substance: [Gly2, Glu3, Ser8,11, Leu10, Ala16,24,28]hGLP-2(1-33)-(Lys)6-NH2 (HGEGSFSSELSTILDALAARDFIAWLIATKITDKKKKKK-NH2) [Compound 1846]
- Muscular thickness of the jejunum (Sprague Dawley rats; 0.62, 3.41 or 6.2 mg/kg i.v. once daily for 5 days): no effect on the muscular thickness of the jejunum
- Crypt-villus length (Sprague Dawley rats; 0.62, 3.41 or 6.2 mg/kg i.v. once daily for 5 days, jejunum (and ileum)): dose-dependent increases in crypt-villus length; also recorded: dose-dependently increased mean crypt-villus length in the jejunum and ileum
- Muscularis thickness in the ileum (Sprague Dawley rats; 0.62, 3.41 or 6.2 mg/kg/day i.v. for five days): dose-dependently increased
- Effect on ulceration compared with prednisolone [1]: greater than the effect of prednisolone

Substance: [Gly2, Glu3, Thr5, Ser8, Leu10, Ala11,16,24,28]hGLP-2(1-33)-(Lys)6-NH2 (HGEGTFSSELATILDALAARDFIAWLIATKITDKKKKKK-NH2) [Compound 1848]
- Estimated extent of ulceration ([1]; 8 nmol/kg s.c.): 230±12 mm^2
- Estimated extent of ulceration ([1]; 40 nmol/kg s.c.): 216±17 mm^2
- Ulceration: addition of prednisolone to high dose compound ([1]; 200 nmol/kg plus prednisolone 10 mg/kg): did not produced any additional effect
- Estimated extent of ulceration ([1]; 200 nmol/kg s.c.): 178±17 mm^2
- Prevention of indomethacin-induced ulceration (in words) ([1]; 8, 40, 200 nmol/kg): prevented indomethacin-induced ulceration in a dose-dependent fashion
- Effect on ulceration compared with prednisolone [1]: more effective than the positive control, prednisolone
- Reduction of total ulceration ([1]; highest dose (200 nmol/kg) vs indomethacin alone): ~50%
